Experimental data taken from ChEMBL document CHEMBL4138083, “Design, synthesis and primary biological evaluation of the novel 2-pyridone derivatives as potent non-nucleoside HBV inhibitors” (Eur J Med Chem, 2017).

Key:
[1] = system: Hepatitis B virus; assay: Antiviral activity against Hepatitis B virus infected in human HepG2.2.15 cells assessed as inhibition of HBsAg secretion after 8 days by ELISA; type: functional, organism-based; settings: HepG2.2.15, 192 h
[2] = Selectivity index, ratio of CC50 for human HepG2.2.15 cells to IC50 for Hepatitis B virus infected in human HepG2.2.15 cells assessed as inhibition of HBsAg secretion; type: toxicity, cell-based; settings: read-out: Ratio CC50/IC50
[3] = system: Hepatitis B virus; assay: Antiviral activity against Hepatitis B virus infected in human HepG2.2.15 cells assessed as inhibition of HBeAg secretion after 8 days by ELISA; type: functional, organism-based; settings: HepG2.2.15, 192 h
[4] = Cytotoxicity against human HepG2.2.15 cells assessed as reduction in cell viability after 8 days by CCK-8 assay; type: cell-based, HepG2 2.2.15
[5] = system: Hepatitis B virus; assay: Antiviral activity against Hepatitis B virus infected in human HepG2.2.15 cells assessed as inhibition of viral DNA replication at 20 uM after 8 days by real time fluorescent PCR method relative to control; type: functional; settings: HepG2.2.15, 192 h
[6] = Selectivity index, ratio of CC50 for human HepG2.2.15 cells to IC50 for Hepatitis B virus infected in human HepG2.2.15 cells assessed as inhibition of HBeAg secretion; type: toxicity, cell-based; settings: read-out: Ratio CC50/IC50
[7] = system: Hepatitis B virus; assay: Antiviral activity against Hepatitis B virus infected in human HepG2.2.15 cells assessed as inhibition of viral DNA replication at 4 uM after 8 days by real time fluorescent PCR method relative to control; type: functional; settings: HepG2.2.15, 192 h
[8] = system: Hepatitis B virus; assay: Antiviral activity against Hepatitis B virus infected in human HepG2.2.15 cells assessed as inhibition of viral DNA replication at 0.16 uM after 8 days by real time fluorescent PCR method relative to control; type: functional; settings: HepG2.2.15, 192 h
[9] = system: Hepatitis B virus; assay: Antiviral activity against Hepatitis B virus infected in human HepG2.2.15 cells assessed as inhibition of viral DNA replication after 8 days by real time fluorescent PCR method; type: functional, organism-based; settings: HepG2.2.15, 192 h
[10] = system: Hepatitis B virus; assay: Antiviral activity against Hepatitis B virus infected in human HepG2.2.15 cells assessed as inhibition of viral DNA replication at 0.8 uM after 8 days by real time fluorescent PCR method relative to control; type: functional; settings: HepG2.2.15, 192 h

Row | Compound | IC50 [1] | selectivity ratio [2] | IC50 [3] | CC50 at 192 h [4] | inhibition at 20 µM [5] | selectivity ratio [6] | inhibition at 4 µM [7] | inhibition at 0.16 µM [8] | IC50 [9] | inhibition at 0.8 µM [10]
1 | COc1cccc(C(=O)Nc2c[nH]c(=O)c(-c3cccc(C)c3)c2)c1O | 94.7 µM | > 1.06 | > 100 µM | > 100 µM |  |  |  |  |  | 
2 | Cc1cccc(-c2cc(NC(=O)c3ccc(C(F)(F)F)cc3O)c[nH]c2=O)c1 | 26.4 µM | 0.92 | 26.8 µM | 24.2 µM | 23.2% | 0.9 |  |  |  | 
3 | COc1ccc(-c2cc(NC(=O)c3cccc(OC)c3O)c[nH]c2=O)cc1 | 34.5 µM | 1.43 | 32.8 µM | 49.2 µM | 25.3% | 1.5 |  |  |  | 
4 | CCOc1ccc(-c2cc(NC(=O)c3ccc(F)cc3O)c[nH]c2=O)cc1 | 28.4 µM | 1.81 | 60.6 µM | 51.5 µM |  | 0.85 |  |  |  | 
5 | CCOc1ccc(-c2cc(NC(=O)c3ccc(C(F)(F)F)cc3O)c[nH]c2=O)cc1 | 23.7 µM | 0.94 | 24.1 µM | 22.2 µM | 76.8% | 0.92 | 47.3% | 4.7% | 3.4 µM | 39.5%
6 | CCOc1ccc(-c2cc(NC(=O)c3cc(OC)ccc3O)c[nH]c2=O)cc1 | 49.1 µM | 1.17 | 51.2 µM | 57.7 µM | 46% | 1.13 |  |  |  | 
7 | Cc1cccc(-c2cc(NC(=O)c3ccc(F)cc3O)c[nH]c2=O)c1 | 65.8 µM | 0.57 | 32.3 µM | 37.2 µM | 37.6% | 1.15 |  |  |  | 
8 | COc1ccc(-c2cc(NC(=O)c3ccc(Cl)cc3O)c[nH]c2=O)cc1 | 79.4 µM | 0.64 | 76.9 µM | 50.5 µM | 22.9% | 0.66 |  |  |  | 
9 | COc1ccc(O)c(C(=O)Nc2c[nH]c(=O)c(-c3cccc(C)c3)c2)c1 | 20.8 µM | 1.44 | 16.9 µM | 30.1 µM | 40.3% | 1.78 |  |  |  | 
10 | Cc1cccc(-c2cc(NC(=O)c3ccc(Cl)cc3O)c[nH]c2=O)c1 | 39 µM | 0.85 | 22.4 µM | 33.1 µM | 26.5% | 1.48 |  |  |  | 
11 | CCOc1ccc(-c2cc(NC(=O)c3ccc(OC)cc3O)c[nH]c2=O)cc1 | 44.1 µM | 1.58 | 41.4 µM | 69.6 µM | 4.2% | 1.68 |  |  |  | 
12 | COc1ccc(-c2cc(NC(=O)c3ccccc3O)c[nH]c2=O)cc1 | > 100 µM |  | 46.4 µM | > 100 µM | 37.9% | > 2.16 |  |  |  | 
13 | Cc1cccc(-c2cc(NC(=O)c3ccc(C)cc3O)c[nH]c2=O)c1 | > 100 µM | < 0.75 | 39.2 µM | 75 µM |  | 1.91 |  |  |  | 
14 | CCOc1ccc(-c2cc(NC(=O)c3ccc(C)cc3O)c[nH]c2=O)cc1 | 62 µM | > 1.61 | 91.9 µM | > 100 µM | 36.4% | > 1.09 |  |  |  | 
15 | CCOc1ccc(-c2cc(NC(=O)c3ccccc3O)c[nH]c2=O)cc1 | 15.2 µM | 2.69 | 24.6 µM | 41 µM | 37.8% | 1.66 |  |  |  | 
